We go through two molecules from US12521379B2, “Use of FK506 for the treatment of pulmonary arterial hypertension” (The Board of Trustees of the Leland Stanford Junior …, priority 2011, dated 2026).

Series [1] has as its system monocrotaline induced pulmonary hypertension. Briefly: Reversal of monocrotaline induced pulmonary hypertension in rats. It is filed as in vivo, rat. As for the experimental part: (§1) 3600 FDA approved drugs and bioactive compounds were screened for their ability to activate BMP signaling, using a C2C12 mouse myoblast cell line stably transfected with a reporter plasmid expressing a BMP response element (BRE) from the Id1 promoter fused to the luciferase-gene (BRE-luc). Whether the best qHTS-BMPRII activator can induce Smad phosphorylation (phospho), Id1 expression and promote PAEC survival and tube formation was determined using BMP4 as a positive control. Whether the qHTS-BMPRII-activator would prevent PAH in mice with a conditional deletion in BMPRII in ECs (BMPRII-SCL-CreERT) that develop exaggerated PAH after 3 weeks of hypoxia (10% O2) was determined. In order to assess whether the BMPRII activator could also reverse PAH, we used 2 models of severe experimental PH in rats: 1. Monocrotaline induced pulmonary hypertension with development of severe medial hypertrophy of the pulmonary arteries 3 weeks after injection. 2. SUGEN (VEGF-Receptor blocker) and 3-week chronic hypoxia induced pulmonary hypertension with development of neointima formation in pulmonary arteries 8 weeks after initiation of the stimulus. Both groups were treated with FK-506 for 3 weeks via sc osmotic pump (0.05 mg/kg/d) after PAH and remodeling of the pulmonary arteries was established. The serum level of FK-506 in mice and rats was aimed to be 0.2 ng/ml.

For series [2], the system named is mice with a conditional deletion in BMPRII in ECs (BMPRII-SCL-CreERT). Briefly: Prevention of PAH in mice with conditional deletion of BMPRII in ECs, 3 weeks of hypoxia. It is filed as in vivo, mouse. The settings on record: 0.05 mg/kg/d, 3-week preventive treatment, 3 weeks of hypoxia, n=5. Here is the method: as §1
Assay in series [3]: as above
Type of series: in vivo, mouse. The settings on record: mouse, serum, 0.05 mg/kg/day; mice, 0.05 mg/kg/d; read-out: serum levels. Here is the method: as §1

Series [4] concerns SUGEN and chronic hypoxia induced pulmonary hypertension. Briefly: Reversal of SUGEN and 3-week chronic hypoxia induced pulmonary hypertension in rats. It is filed as in vivo, rat. To be noted: n=4. Here is the method: as §1
Series [5] deals with WBC count, nuclear NFATc2. Briefly: Immunosuppressive effect at low dose: WBC count and nuclear NFATc2. It is filed as in vivo. The settings on record: low dose of 0.2 ng/ml.
The subject of series [6] is PAECs harvested from IPAH patients. Briefly: p-Smad 1/5/8 and Id1 expression in PAECs harvested from IPAH patients. The settings on record: PAECs from six different IPAH patients at the time of transplant. It is filed as cell-based, human. As for the experimental part: as §1
The subject of series [7] is PAECs. Briefly: PAEC survival. To be noted: n=5, p<0.001. It is filed as cell-based. Here is the method:
as §1

Series [8] has as its system PAECs. Briefly: Tube formation in an angiogenesis assay. To be noted: n=3, p<0.01. It is filed as cell-based. As for the experimental part: as §1
The mark [9] stands for this setting: 3-week sc treatment at established PAH.

As for `C=CC[C@@H]1/C=C(\C)C[C@H](C)C[C@H](OC)[C@H]2O[C@@](O)(C(=O)C(=O)N3CCCC[C@H]3C(=O)O[C@H](/C(C)=C/[C@@H]3CC[C@@H](O)[C@H](OC)C3)[C@H](C)[C@@H](O)CC1=O)[C@H](C)C[C@@H]2OC` [FK-506], the survival in series [1] (after 3-week treatment started 3 weeks after monocrotaline 60 mg s.c.) came out at 57%. Also, in series [1] (surviving rats after 3-week treatment, n=14), the RVSP is recorded as 39.5±4.7 mmHg. Also, in series [2], the RV systolic pressure was 21±2.3 mmHg and the “RVH (right ventricular hypertrophy)” value is on record as 26.9±4.5. In series [3], the concentration at 3 weeks was 0.2 ng/mL. For the same molecule, in series [4] (setting [9]), the RVH was found to be 0.34±0.02 and the RVSP is given as 39.5±0.6 mmHg. Further, the “Neointima formation in small pulmonary arteries per total vessel number” value in series [4] (alveolar wall and alveolar duct vessels) is listed as 16.2±5.8%. In series [5], the “immunosuppressive effect of decreased nuclear NFATc2” value was “nor was an immunosuppressive effect of decreased nuclear NFATc2 measured” and the “total or differential WBC count” value is reported as “no effect”.

B1: BMP4: bone morphogenetic protein 4, used as a positive control (protein, UniProt P12644 293-408, looked up)
Bone morphogenetic protein 4: SPKHHSQRARKKNKNCRRHSLYVDFSDVGWNDWIVAPPGYQAFYCHGDCPFPLADHLNSTNHAIVQTLVNSVNSSIPKACCVPTELSAISMLYLDEYDKVVLKNYQEMVVEGCGCR
With B1, in series [6], the Id1 expression is 3/6 patients that did not respond and the “p-Smad 1/5/8” value is 3/6 patients that did not respond. Also, the “survival of PAECs” value in the series with PAECs [7] is on record as “improved survival”. In addition, in the series on PAECs [8], the tube formation result was “induced tube formation”.
